# Data: PMC11171218, “N-Benzylated 5-Hydroxybenzothiophene-2-carboxamides as Multi-Targeted Clk/Dyrk Inhibitors and Potential Anticancer Agents” (Cancers, 2024)
# pIC50: −log10 of the molar value.
# Key:
# [1] = biological target: Dyrk1A (Homo sapiens, UniProt Q13627); experiment: Z'-LYTE kinase inhibition assay, Dyrk1A; format: biochemical; details: for inhibition at 1 µM: read-out: Dyrk1A % Inh. At 1 µM; for pIC50: ATP conc. equivalent to Km
# Source text: (§1) 3. Experimental procedure for protein kinases and inhibition assays.
# (§2) 3.1 The Z ́ -LYTE biochemical assay for screening and IC 50 determination for Clk1, Dyrk1A, Dyrk1B, Clk2 and Clk3 kinases.
# (§3) The assay employs a fluorescence-based, coupled-enzyme format and is based on the differential sensitivity of phosphorylated and non-phosphorylated peptides to proteolytic cleavage. The peptide substrate is labeled with two fluorophores-one at each end-that make up a FRET pair. In the primary reaction, the kinase transfers the gamma-phosphate of ATP to a single tyrosine, serine, or threonine residue in a synthetic FRET-peptide. In the secondary reaction, a site-specific protease recognizes and cleaves non-phosphorylated FRET-peptides. Phosphorylation of FRET-peptides suppresses cleavage by the Development Reagent. Cleavage disrupts FRET between the donor (i.e., coumarin) and acceptor (i.e., fluorescein) fluorophores on the FRET-peptide, whereas uncleaved, phosphorylated FRET-peptides maintain FRET. A ratiometric method, which calculates the ratio (the Emission Ratio) of donor emission to acceptor emission after excitation of the donor fluorophore at 400 nm, is used to quantitate reaction progress. Both cleaved and uncleaved FRET-peptides contribute to the fluorescence signals and therefore to the Emission Ratio. The extent of phosphorylation of the FRET-peptide can be calculated from the Emission Ratio. The Emission Ratio will remain low if the FRET-peptide is phosphorylated (i.e., no kinase inhibition) and will be high if the FRET-peptide is non-phosphorylated (i.e., kinase inhibition).
# (§4) The IC 50 values were determined for compounds displaying significant % inhibition in the screening step. IC 50 determination was done through testing at a range of concentrations with two […]
# (§5) two independent experiments. […]
# 3.1.2 Dyrk1A kinase assay specific conditions:
# The 2x Dyrk1A / Ser/Thr 18 mixture is prepared in 50 mM HEPES pH 7.5, 0.01% BRIJ-35, 10 […]
# 2 µM Ser/Thr 18 in 50 mM HEPES pH 7.5, 0.01% BRIJ-35, 10 mM MgCl 2, 1 mM EGTA. […]
# (§6) Development Reagent A is added. […]
# (§7) MgCl2, 1 mM EGTA, 0.02% NaN3. […]
# [2] = biological target: Dyrk1B (Homo sapiens, UniProt Q9Y463); experiment: Z'-LYTE kinase inhibition assay, Dyrk1B; format: biochemical; details: for pIC50: ATP conc. equivalent to Km; for inhibition at 1 µM: read-out: Dyrk1B % Inh. At 1 µM
# Sequence of Dyrk1B (Q9Y463 whole entry): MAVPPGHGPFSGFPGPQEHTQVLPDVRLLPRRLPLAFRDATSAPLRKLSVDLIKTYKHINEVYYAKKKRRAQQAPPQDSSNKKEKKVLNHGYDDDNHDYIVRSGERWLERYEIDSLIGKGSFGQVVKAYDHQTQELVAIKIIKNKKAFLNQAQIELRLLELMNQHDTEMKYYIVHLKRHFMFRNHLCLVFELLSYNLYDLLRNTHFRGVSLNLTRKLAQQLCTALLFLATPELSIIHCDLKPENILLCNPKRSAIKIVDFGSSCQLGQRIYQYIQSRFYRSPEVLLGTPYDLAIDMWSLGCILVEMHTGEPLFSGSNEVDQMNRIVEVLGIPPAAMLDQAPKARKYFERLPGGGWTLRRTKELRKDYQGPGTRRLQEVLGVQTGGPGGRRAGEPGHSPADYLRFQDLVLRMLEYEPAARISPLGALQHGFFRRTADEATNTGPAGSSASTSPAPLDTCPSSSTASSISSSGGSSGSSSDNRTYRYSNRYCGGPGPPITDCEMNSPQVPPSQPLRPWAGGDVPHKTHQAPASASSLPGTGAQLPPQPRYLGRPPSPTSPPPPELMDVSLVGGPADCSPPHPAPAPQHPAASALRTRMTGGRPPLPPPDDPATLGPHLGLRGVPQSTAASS
# Source text: as §1, §2, §3, §4, §5
# 3.1.3 Dyrk1B kinase assay specific conditions:
# The 2X Dyrk1B / Ser/Thr 18 mixture is prepared in 50 mM HEPES pH 6.5, 0.01% BRIJ-35, 10 […]
# mM MgCl2, 1 mM EGTA, 0.02% NaN3.
# as §6, §7
# [3] = biological target: Clk1 (Homo sapiens, UniProt P49759); experiment: Z'-LYTE kinase inhibition assay, Clk1; format: biochemical; details: for pIC50: ATP conc. equivalent to Km; for inhibition at 1 µM: read-out: Clk1 % Inh. At 1 µM
# Sequence of Clk1 (P49759 whole entry): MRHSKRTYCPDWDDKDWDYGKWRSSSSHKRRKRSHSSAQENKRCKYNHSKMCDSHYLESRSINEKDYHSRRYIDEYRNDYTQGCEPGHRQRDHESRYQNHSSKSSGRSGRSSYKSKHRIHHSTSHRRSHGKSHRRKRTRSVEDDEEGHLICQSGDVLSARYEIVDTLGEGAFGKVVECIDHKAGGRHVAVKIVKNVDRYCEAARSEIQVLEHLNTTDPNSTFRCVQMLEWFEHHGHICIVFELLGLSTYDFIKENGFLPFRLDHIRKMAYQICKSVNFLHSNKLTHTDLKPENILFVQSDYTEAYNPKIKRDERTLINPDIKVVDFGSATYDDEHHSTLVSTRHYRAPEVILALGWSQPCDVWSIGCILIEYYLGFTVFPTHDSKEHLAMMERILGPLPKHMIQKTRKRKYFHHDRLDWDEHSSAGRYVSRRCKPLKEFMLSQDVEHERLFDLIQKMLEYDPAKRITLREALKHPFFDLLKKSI
# Source text: as §1, §2, §3, §4
# two independent experiments.
# 3.1.1 Clk1 kinase assay specific conditions:
# The 2x Clk1 / Ser/Thr 09 mixture is prepared in 50 mM HEPES pH 7.5, 0.01% BRIJ-35, 10 mM MgCl 2, 1 mM EGTA. The final 10 μL kinase reaction consists of 30 - 120 ng Clk1 and 2 μM Ser/Thr 09 in 50 mM HEPES pH 7.5, 0.01% BRIJ-35, 10 mM MgCl 2, 1 mM EGTA. After the 1 h
Compound,inhibition at 1 µM [1] [%],pIC50 [2],inhibition at 1 µM [2] [%],pIC50 [3],inhibition at 1 µM [3] [%],pIC50 [1],melting point [°C]
"O=C(NCc1ccccc1)c1cc2cc(O)ccc2s1 [Compound 1, N-Benzyl-5-hydroxybenzo[b]thiophene-2-carboxamide]",46,6.08,60,6.13,60,,
"O=C(NCc1ccccc1Cl)c1cc2cc(O)ccc2s1 [Compound 2, N-(2-Chlorobenzyl)-5-hydroxybenzo[b]thiophene-2-carboxamide]",61,,46,6.11,61,6.15,140.2 to 142
"O=C(NCc1ccc(Cl)cc1)c1cc2cc(O)ccc2s1 [Compound 4, N-(4-Chlorobenzyl)-5-hydroxybenzo[b]thiophene-2-carboxamide]",7,,0,,40,,182 to 183.7
"O=C(NCc1ccccc1F)c1cc2cc(O)ccc2s1 [Compound 5, N-(2-Fluorobenzyl)-5-hydroxybenzo[b]thiophene-2-carboxamide]",48,6.14,62,6.11,63,,199.8 to 201.7
"O=C(NCc1ccc(F)cc1)c1cc2cc(O)ccc2s1 [Compound 7, N-(4-Fluorobenzyl)-5-hydroxybenzo[b]thiophene-2-carboxamide]",26,,38,,50,,195 to 197.2
"Cc1ccccc1CNC(=O)c1cc2cc(O)ccc2s1 [Compound 8, 5-Hydroxy-N-(2-methylbenzyl)benzo[b]thiophene-2-carboxamide]",61,,48,6.23,63,6.07,159.1 to 161.2
"Cc1cccc(CNC(=O)c2cc3cc(O)ccc3s2)c1 [Compound 9, 5-Hydroxy-N-(3-methylbenzyl)benzo[b]thiophene-2-carboxamide]",33,,40,6.10,61,,176.3 to 178.4
"Cc1ccc(CNC(=O)c2cc3cc(O)ccc3s2)cc1 [Compound 10, 5-Hydroxy-N-(4-methylbenzyl)benzo[b]thiophene-2-carboxamide]",8,,0,,30,,186.6 to 187.6
"COc1ccc(CNC(=O)c2cc3cc(O)ccc3s2)cc1 [Compound 13, 5-Hydroxy-N-(4-methoxybenzyl)benzo[b]thiophene-2-carboxamide]",9,,16,,17,,176.5 to 178
"O=C(NCc1cc(Cl)cc(Cl)c1)c1cc2cc(O)ccc2s1 [Compound 14, N-(3,5-Dichlorobenzyl)-5-hydroxybenzo[b]thiophene-2-carboxamide]",41,,12,6.13,61,,189.4 to 192.1
"O=C(NCc1cccc(F)c1F)c1cc2cc(O)ccc2s1 [Compound 15, N-(2,3-Difluorobenzyl)-5-hydroxybenzo[b]thiophene-2-carboxamide]",53,6.19,61,6.11,61,,199.7 to 201.9
"O=C(NCc1ccc(F)cc1F)c1cc2cc(O)ccc2s1 [Compound 16, N-(2,4-Difluorobenzyl)-5-hydroxybenzo[b]thiophene-2-carboxamide]",40,,53,,50,,
"O=C(NCc1cc(C(F)(F)F)cc(C(F)(F)F)c1)c1cc2cc(O)ccc2s1 [Compound 18, N-(3,5-Bis(trifluoromethyl)benzyl)-5-hydroxybenzo[b]thiophene-2-carboxamide]",8,,0,,26,,199 to 201
"Cc1cc(C)cc(CNC(=O)c2cc3cc(O)ccc3s2)c1 [Compound 19, N-(3,5-Dimethylbenzyl)-5-hydroxybenzo[b]thiophene-2-carboxamide]",22,,0,,53,,140.2 to 141.8
"COc1cccc(CNC(=O)c2cc3cc(O)ccc3s2)c1OC [Compound 20, N-(2,3-Dimethoxybenzyl)-5-hydroxybenzo[b]thiophene-2-carboxamide]",14,,19,,21,,181.1 to 183.3
"COc1ccc(CNC(=O)c2cc3cc(O)ccc3s2)c(OC)c1 [Compound 21, N-(2,4-Dimethoxybenzyl)-5-hydroxybenzo[b]thiophene-2-carboxamide]",9,,17,,43,,163.3 to 164.5
"COc1ccc(CNC(=O)c2cc3cc(O)ccc3s2)cc1OC [Compound 22, N-(3,4-Dimethoxybenzyl)-5-hydroxybenzo[b]thiophene-2-carboxamide]",8,,16,,18,,188.3 to 190.3
"COc1cc(CNC(=O)c2cc3cc(O)ccc3s2)cc(OC)c1 [Compound 23, N-(3,5-Dimethoxybenzyl)-5-hydroxybenzo[b]thiophene-2-carboxamide]",12,,22,,22,,
"O=C(c1cc2cc(O)ccc2s1)N1CCc2ccccc2C1 [Compound 24, (3,4-Dihydroisoquinolin-2(1H)-yl)(5-hydroxybenzo[b]thiophen-2-yl)methanone]",12,,21,,33,,198.8 to 200.8
"O=C(c1cc2cc(O)ccc2s1)N1Cc2ccc(Cl)cc2C1 [Compound 25, (5-Chloroisoindolin-2-yl)(5-hydroxybenzo[b]thiophen-2-yl)methanone]",13,,24,6.22,62,,224.9 to 226
"O=C(NCc1cccnc1)c1cc2cc(O)ccc2s1 [Compound 26, 5-Hydroxy-N-(pyridin-3-ylmethyl)benzo[b]thiophene-2-carboxamide]",34,,39,,47,,198 to 200.8
"O=C(NCc1cccs1)c1cc2cc(O)ccc2s1 [Compound 27, 5-Hydroxy-N-(thiophen-2-ylmethyl)benzo[b]thiophene-2-carboxamide]",53,6.15,61,6.15,60,,139.6 to 141.4
"O=C(NCc1ccco1)c1cc2cc(O)ccc2s1 [Compound 28, N-(Furan-2-Ylmethyl)-5-hydroxybenzo[b]thiophene-2-carboxamide]",66,,52,6.23,61,6.11,99.2 to 101.6
